In patent US20240000950A1, “THERAPEUTIC CURE-PRO COMPOUNDS FOR TARGETED DEGRADATION OF BET DOMAIN PROTEINS, AND METHODS OF MAKING AND USING THEM” (CORNELL UNIVERSITY, priority 2020, published 2024):
Entries after “also recorded” stand apart in the source; their conditions may differ.

What was measured:
Assay type in all cases: cell-based
Molm-13 cells = assay: CellTiter-Glo cell viability, Molm-13 cells
Description: (§1) All cell lines were purchased from ATCC or DSMZ and grown at 37° C. with 5% C02. Human HeLa cells were cultured in complete growth medium (Dulbecco's modified Eagle's medium (DMEM) supplemented with 10% FBS); MCF7 cells were cultured in complete growth medium (Dulbecco's modified Eagle's medium (DMEM) supplemented with 10% FBS and 0.01 mg/ml human recombinant insulin (Sigma Aldrich); Namalwa and MOLM-13 cells were cultured in complete growth medium (RPMI 1640 medium supplemented with 10% FBS); MV-4-11 were cultured in complete growth medium (Iscove's Modified Dulbecco's medium, supplemented with 10% FBS); HCT116 cells were cultured in complete growth medium (McCoy's 5a Medium supplemented with 10% FBS). […]
(§2) CellTiter-Glo® 2.0 Cell Viability Assay (Promega) was carried out following the manufacturer's recommendations. […] After a 72 h incubation, 100 ul of the CellTiter-Glo® substrate was added per well and luminescence was read on a Spectramax M5 (Molecular Devices). […]
Molm-13 cells (1×104) were treated for 24 (FIG. 77A) or 72 (FIG. 77B) hours were treated in white 96 well plates with the compounds (10 nM-10 μM solubilized in DMSO). After indicated times cell viability was assessed using the CellTiter-Glo® Luminescent Cell Viability Assay (Promega) and the signal detected on a SpectraMax M5 (Molecular Devices).

BRD4 [1] = target: T1, BRD4 (Homo sapiens, UniProt O60885); assay: CURE-PRO-mediated BRD4 degradation in MCF7 cells with VHL ligands, WES (ProteinSimple); set-up: endogenous in cells; host or cells: HeLa, MCF7 or HCT116
Description: as §1, with “FBS). For cellular degradation of BRD4 studies, cells were seeded in a 12-well plate at 70-80% confluency, allowed to attach overnight, and incubated with the indicated compounds for the indicated time.” for “FBS).”
WES Simple analysis was performed on WES system (ProteinSimple-Biotechne) according to the manufacturer's instructions. Total protein concentrations of cell lysates were determined by the Pierce BCA kit (Thermo Fisher). […]
MCF7 cells (3×10^6) were treated for 4-24 hours continually (FIG. 72), or treated for 4 h, washed and incubated for a further 4-24 h with the compounds solubilized in DMSO. […] The total protein concentration was quantified by the BCA method (ThermoFisher Sciences). […]

[2] = system: caspase 3/7 activity in MOLM13 cells; assay: Caspase-Glo 3/7 assay, Molm-13 cells; details: 24 h, co-treated with VHL ligand VHL298
Description: as §1
(§3) Caspase-glo® assay (Promega) was conducted following the manufacturer's recommendations. […] After a 24 h incubation, 100 μl of the […] substrate was added per well and luminescence was read on a Spectramax M5 (Molecular Devices).
(§4) Molm-13 (FIG. 76A) or Namalwa (FIG. 76B) cells (5×104) were treated for 24 hours with the compounds solubilized in DMSO in white 96 well plates (10 nM-10 μM solubilized in DMSO). FIG. 76 is a bar graph depiction of fold increase of apoptosis assessed via caspase 3/7 activity using the Caspase-Glo assay (Promega) described above.

[3] = system: caspase 3/7 activity in Namalwa cells; assay: Caspase-Glo 3/7 assay, Namalwa cells; details: 24 h, co-treated with VHL ligand VHL298
Description: All cell lines were purchased from ATCC or DSMZ and grown at 37° C. with 5% C02. […]
as §3
Namalwa cells (5×104) were treated for 24 hours with the compounds solubilized in DMSO. FIG. 57 is a bar graph depiction of fold increase of apoptosis assessed via caspase 3/7 activity using the Caspase-Glo assay (Promega) described above.
as §4

BRD4 [4] = target: T1, BRD4; assay: Summary of E3 ligase directed degradation of BRD4, estimated from Western Blot or WES (Tables 1-6); set-up: endogenous in cells; host or cells: HeLa, MCF7 or HCT116
Method in brief: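 HeLa, MCF7 or HCT116 cells treated 24 h with compounds in DMSO, lysed in RIPA buffer; BRD4 levels read by Western blot (ECL detection) or capillary WES with HRP detection. Check mark denotes 30% to 70% or higher protein degradation.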

BRD4 [5] = target: T1, BRD4; assay: CURE-PRO-mediated BRD4 degradation in HeLa cells, WES capillary electrophoresis (ProteinSimple); set-up: endogenous in cells; host or cells: HeLa; details: 4-24 h, 10 μM each, co-dosed with CRBN ligand 8047, washed after 4 h
Description: (§5) All cell lines were purchased from ATCC or DSMZ and grown at 37° C. with 5% C02. Human HeLa cells were cultured in complete growth medium (Dulbecco's modified Eagle's medium (DMEM) supplemented with 10% FBS); MCF7 cells were cultured in complete growth medium (Dulbecco's modified Eagle's medium (DMEM) supplemented with 10% FBS and 0.01 mg/ml human recombinant insulin (Sigma Aldrich); Namalwa and MOLM-13 cells were cultured in complete growth medium (RPMI 1640 medium supplemented with 10% FBS); MV-4-11 were cultured in complete growth medium (Iscove's Modified Dulbecco's medium, supplemented with 10% FBS); HCT116 cells were cultured in complete growth medium (McCoy's 5a Medium supplemented with 10% FBS). For cellular degradation of BRD4 studies, cells were seeded in a 12-well plate at 70-80% confluency, allowed to attach overnight, and incubated with the indicated compounds for the indicated time. When indicated, a 15-minute pretreatment with 10 μM pomalidomide, 10 μM VHL298, 10 μM Nutlin3a, 1 μM MG-132 or 1 μM Carfilzomib was performed before the addition of CURE-PROs. For washout studies, after CURE-PRO treatment, media was aspirated and incubated with complete medium for the indicated time before lysis.
(§6) Anti-BRD4 (13440, 1:1,000 dilution for Western Blot and 1:25 dilution for ProteinSimple); Anti-BRD2 (5848 1:1,000 dilution for Western Blot and 1:25 dilution for ProteinSimple); β-Actin (3700, 1:2,000 dilution for Western Blot), β-Actin (4970, 1:50 dilution for ProteinSimple) anti-mouse IgG-HRP, and anti-rabbit IgG-HRP antibodies were purchased Cell Signaling Technology. Anti-GAPDH (600-401-A33, 1:100 dilution for ProteinSimple) was purchased from Rockland Immunochemicals, Inc. Anti-BRD3 (sc-81202, 1:200 dilution for Western Blot) was purchased from Santa Cruz Biotechnology.
WES Simple analysis was performed on WES system (ProteinSimple-Biotechne) according to the manufacturer's instructions. Total protein concentrations of cell lysates were determined by the Pierce BCA kit (Thermo Fisher). 3 μL of 0.3 μg/uL of the protein lysate was loaded onto a 12- to 230-kDa WES assay plate (ProteinSimple) where 300 nL sample was withdrawn through a capillary, subjected to electrophoretic separation of proteins by size, and followed by the simultaneous, HRP-based detection of proteins using the Anti-Rabbit Detection Module (Proteinsimple: #DM-001). The electropherograms were checked then the automatic peak detection was manually corrected if it was required.
HeLa cells (2.5×10^6) were treated for 4-24 hours with the compounds solubilized in DMSO. After 4 hours, indicated points were washed and cells were left in full growth media. Compounds were added at 10 μM each. […]

BRD4 [6] = target: T1, BRD4; assay: CURE-PRO-mediated BRD4 degradation in HeLa cells, Western blot; set-up: endogenous in cells; host or cells: HeLa; details: 24 h
Description: as §5, §6
HeLa, MCF7, or HCT116 cells (2.5-3×10^6) were treated for 24 hours with the indicated compounds solubilized in DMSO. The cells were washed in ice-cold PBS and were then lysed in RIPA lysis buffer (150 mM NaCl, 5 mM EDTA, 1% NP-40, 0.5% sodium deoxycholate, 0.1% SDS, 50 mM Tris, pH 8.0) with Roche protease inhibitor complete cocktail and phosphatase inhibitors (10 mM sodium fluoride, 10 mM sodium pyrophosphate, 1 mM sodium orthovanadate and 20 mM β-glycerophosphate). The total protein concentrations were determined by Bradford Protein Assay and 10-20 μg of protein was loaded onto 4-15% Tris-Glycine gradient gels (Biorad). After standard gel electrophoresis, the separated proteins were transferred to PVDF membrane by wet transfer. The immunoblots were then blocked for 1 hour in 5% skim milk in TBST or 5% BSA in TBST, according to manufacturer's instructions, before an overnight incubation at 4° C. with indicated antibodies and membranes. Membranes were then incubated with the appropriate horseradish peroxidase-conjugated secondary antibodies (1:5,000 dilution) for 1 h at room temperature and the bands were visualized using the Clarity Max Western ECL Substrate (Biorad) and the ChemiDoc Imaging System (Biorad). Signal was detected with ECL Western Blotting Substrate (Pierce) and X-ray film processed with a Konica SRX-101 X-ray film processor or captured by Bio-Rad's Chemidoc Imaging system.
HeLa cells (2.5×10^6) were treated for 24 hours with the sample compounds solubilized in DMSO. Compounds were added at 1-10 μM each. Standardized protein samples were electrophoresed and imaged as described in the immunoblotting description above. FIGS. 6-18 depicts the CURE-PRO-mediated BRD4 degradation for BRD monomers (JQ1 derivatives comprising of catechol linkers), and CRBN ligands, 8048 and 8049 (pomalidomide derivatives comprising boronic acid linkers) combined in a 1:1 ratio.
HeLa cells (2.5×10^6) were treated for 24 hours with the compounds solubilized in DMSO. The compounds were added at 10 μM each. Standardized protein samples were electrophoresed and imaged as described in the immunoblotting section above. […]

Namalwa cells = assay: CellTiter-Glo cell viability, Namalwa cells; details: 72 h, 10 nM-10 μM, co-dosed 1:1 with CRBN ligand 8047, compared to monomer alone
Description: as §5, with “When indicated, a 15-minute pretreatment with 10 μM pomalidomide, 10 μM VHL298, 10 μM Nutlin3a, 1 μM MG-132 or 1 μM Carfilzomib was performed before the addition of CURE-PROs. For washout studies, after CURE-PRO treatment, media was aspirated and incubated with complete medium for the indicated time before lysis.” left out
as §2
Namalwa cells (1×104) were treated for 72 hours with the compounds solubilized in DMSO. […] Cellular viability was determined using the CellTiter-Glo® Luminescent Cell Viability Assay (Promega) described above. […]

| SMILES | loss of cell viability (CellTiter-Glo) (Molm-13 cells; 24 h and 72 h, 10 nM-10 μM, co-dosed 1:1 with VHL ligand 8305) | cell viability (CellTiter-Glo) (Molm-13 cells; co-treated with VHL ligand VHL298) | BRD4 degradation after pre-incubation with VHL298 (BRD4 [1]; 10 μM each with VHL ligand 8305, VHL298 preincubated at equimolar concentration) | BRD4 degradation (BRD4 [1]; 10 μM each, 1:1 with VHL ligand 8305, 4-24 h, with washout where stated) | caspase 3/7 activity [2] | caspase 3/7 activity [3] | Degradation of BRD4, combination with VHL ligand [drawing 442] (BRD4 [4]; Table 3, aromatic 1,2-diol-containing VHL ligand drawn as drawing 442 (by the text apparently 8305)) | BRD4 degradation, time dependence and washout (BRD4 [5]) | BRD4 degradation with pomalidomide and the BRD ligand (no 8047) (BRD4 [6]; 10 μM) | BRD4 degradation after preincubation with pomalidomide (BRD4 [6]; 10 μM, 1:1 with CRBN ligand 8047, pomalidomide preincubated 15 min at equimolar concentration) | BRD4 degradation (BRD4 [6]; BRD ligand (monomer) alone) | loss of cell viability (CellTiter-Glo) (Namalwa cells) | Degradation of BRD4, combination with CRBN ligand [drawing 421] (BRD4 [4]; Table 1, CRBN ligand drawn as drawing 421 (by the text apparently 8047)) |
| --- | --- | --- | --- | --- | --- | --- | --- | --- | --- | --- | --- | --- | --- |
| CCNC(=O)C[C@@H]1N=C(c2ccc(Cl)cc2)c2cc(B(O)O)ccc2-n2c(C)nnc21 [BRD-E50, ((4S)-6-(4-chlorophenyl)-4-(2-(ethylamino)-2-oxoethyl)-1-methyl-4H-benzo[f][1,2,4]triazolo[4,3-a] [1,4]diazepin-8-yl)boronic acid] | marked loss in cell viability; also recorded: a greater loss of cell viability | decreases levels of cell viability to similar levels of BRD-E50 treatment alone | attenuates CURE-PRO mediated BRD4 degradation; also recorded: No degradation is noted; also recorded: inhibited CURE-PRO mediated degradation; also recorded: inhibits the degradation of BRD4 | directs degradation of BRD4 as early as 4 h, with sustained degradation 24 h after wash out; also recorded: marked BRD4 degradation after 4 h with sustained degradation for up to 8 h after drugs are washed out | does not increase caspase activity | does not increase caspase activity | ✓ (A black check mark indicates efficacy of 30% to 70% or higher protein degradation) | – | – | – | – | – | – |
| CCNC(=O)C[C@@H]1N=C(c2ccc(Cl)cc2)c2cc(-c3cccc(B(O)O)c3)ccc2-n2c(C)nnc21 [BRD-E72, (3-((4S)-6-(4-chlorophenyl)-4-(2-(ethylamino)-2-oxoethyl)-1-methyl-4H-benzo[f][1,2,4]triazolo[4,3-a][1,4]diazepin-8-yl)phenyl)boronic acid] | – | – | – | – | – | – | – | marked BRD4 degradation after 4 h with sustained degradation for up to 8 h after drugs are washed out | failed to induce BRD4 degradation | inhibition of CURE-PRO-mediated BRD4 degradation | no change in expression is observed | the dose-response curves shifted towards the left; also recorded: marked loss in cell viability | ✓ (A black check mark indicates efficacy of 30% to 70% or higher protein degradation) |
